Source: US20140179664A1, “Heterocyclyl Pyrimidine Analogues As JAK Inhibitors” (Cellzome Limited, priority 2011, published 2014)

What was measured:
TYK2 = target: T1, TYK2 (Homo sapiens, UniProt P29597); assay: Kinobeads assay, TYK2; assay type: binding; conditions: mixed Molt4/Ramos lysate, read-out: Inhibition values (IC50) TYK2
T1 construct: endogenous in cells; host or cells: Molt4 (ATCC CRL-1582) and Ramos (ATCC CRL-1596), mixed lysate 1:2
How it was run: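 Mixed Molt4/Ramos lysate (1:2, 10 mg/mL protein) was incubated 3 h in the cold with the immobilized aminopyrido-pyrimidine affinity matrix and compound, 9-step 1:3 dilutions. Bead-bound kinases were eluted and quantified by antibody dot blot with infrared detection. IC50s are from dose-response curves.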

JAK1 = target: T2, JAK1 (Homo sapiens, UniProt P23458); assay: Kinobeads assay, JAK1; assay type: binding; conditions: mixed Molt4/Ramos lysate, read-out: Inhibition values (IC50) JAK1
T2 construct: endogenous in cells; host or cells: Molt4 (ATCC CRL-1582) and Ramos (ATCC CRL-1596), mixed lysate 1:2
T2 sequence (P23458 whole entry): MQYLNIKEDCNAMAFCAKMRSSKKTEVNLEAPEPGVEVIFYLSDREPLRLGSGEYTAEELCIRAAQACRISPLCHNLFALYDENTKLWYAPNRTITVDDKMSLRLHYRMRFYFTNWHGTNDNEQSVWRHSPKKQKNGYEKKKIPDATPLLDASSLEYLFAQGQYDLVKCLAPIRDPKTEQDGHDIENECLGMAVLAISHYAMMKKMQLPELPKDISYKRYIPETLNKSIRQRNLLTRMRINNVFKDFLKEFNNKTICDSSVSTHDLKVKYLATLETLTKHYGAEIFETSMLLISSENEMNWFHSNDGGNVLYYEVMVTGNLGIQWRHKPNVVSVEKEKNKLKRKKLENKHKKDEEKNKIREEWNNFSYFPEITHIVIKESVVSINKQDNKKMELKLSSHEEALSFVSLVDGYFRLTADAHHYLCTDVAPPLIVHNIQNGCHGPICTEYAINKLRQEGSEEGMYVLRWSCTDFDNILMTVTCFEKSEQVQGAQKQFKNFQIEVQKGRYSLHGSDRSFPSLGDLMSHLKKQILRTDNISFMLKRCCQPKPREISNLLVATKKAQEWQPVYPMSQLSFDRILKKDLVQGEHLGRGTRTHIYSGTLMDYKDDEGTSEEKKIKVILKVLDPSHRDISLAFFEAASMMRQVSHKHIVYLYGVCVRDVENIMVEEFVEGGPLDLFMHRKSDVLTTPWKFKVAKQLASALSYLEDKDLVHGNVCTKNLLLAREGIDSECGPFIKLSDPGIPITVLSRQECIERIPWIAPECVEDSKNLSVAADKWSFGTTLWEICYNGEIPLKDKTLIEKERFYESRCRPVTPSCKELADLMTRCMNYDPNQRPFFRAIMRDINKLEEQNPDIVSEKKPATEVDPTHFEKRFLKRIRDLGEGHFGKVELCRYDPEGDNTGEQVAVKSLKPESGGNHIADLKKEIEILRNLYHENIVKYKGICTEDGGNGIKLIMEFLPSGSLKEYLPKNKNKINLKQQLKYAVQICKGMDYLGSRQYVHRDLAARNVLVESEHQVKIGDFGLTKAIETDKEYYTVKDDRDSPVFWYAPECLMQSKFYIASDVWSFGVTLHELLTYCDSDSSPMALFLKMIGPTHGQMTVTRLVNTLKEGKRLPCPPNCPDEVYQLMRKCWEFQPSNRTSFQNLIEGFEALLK
How it was run: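 Mixed Molt4/Ramos cell lysate (1:2) was incubated 3 hours in the cold with kinobeads and a 9-step 1:3 compound dilution series. The no-compound control carried 2% DMSO. Bead-bound JAK1 was eluted, detected by antibody dot blot with infrared fluorescence, and IC50 derived from dose-response curves.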

T1 sequence (P29597 whole entry): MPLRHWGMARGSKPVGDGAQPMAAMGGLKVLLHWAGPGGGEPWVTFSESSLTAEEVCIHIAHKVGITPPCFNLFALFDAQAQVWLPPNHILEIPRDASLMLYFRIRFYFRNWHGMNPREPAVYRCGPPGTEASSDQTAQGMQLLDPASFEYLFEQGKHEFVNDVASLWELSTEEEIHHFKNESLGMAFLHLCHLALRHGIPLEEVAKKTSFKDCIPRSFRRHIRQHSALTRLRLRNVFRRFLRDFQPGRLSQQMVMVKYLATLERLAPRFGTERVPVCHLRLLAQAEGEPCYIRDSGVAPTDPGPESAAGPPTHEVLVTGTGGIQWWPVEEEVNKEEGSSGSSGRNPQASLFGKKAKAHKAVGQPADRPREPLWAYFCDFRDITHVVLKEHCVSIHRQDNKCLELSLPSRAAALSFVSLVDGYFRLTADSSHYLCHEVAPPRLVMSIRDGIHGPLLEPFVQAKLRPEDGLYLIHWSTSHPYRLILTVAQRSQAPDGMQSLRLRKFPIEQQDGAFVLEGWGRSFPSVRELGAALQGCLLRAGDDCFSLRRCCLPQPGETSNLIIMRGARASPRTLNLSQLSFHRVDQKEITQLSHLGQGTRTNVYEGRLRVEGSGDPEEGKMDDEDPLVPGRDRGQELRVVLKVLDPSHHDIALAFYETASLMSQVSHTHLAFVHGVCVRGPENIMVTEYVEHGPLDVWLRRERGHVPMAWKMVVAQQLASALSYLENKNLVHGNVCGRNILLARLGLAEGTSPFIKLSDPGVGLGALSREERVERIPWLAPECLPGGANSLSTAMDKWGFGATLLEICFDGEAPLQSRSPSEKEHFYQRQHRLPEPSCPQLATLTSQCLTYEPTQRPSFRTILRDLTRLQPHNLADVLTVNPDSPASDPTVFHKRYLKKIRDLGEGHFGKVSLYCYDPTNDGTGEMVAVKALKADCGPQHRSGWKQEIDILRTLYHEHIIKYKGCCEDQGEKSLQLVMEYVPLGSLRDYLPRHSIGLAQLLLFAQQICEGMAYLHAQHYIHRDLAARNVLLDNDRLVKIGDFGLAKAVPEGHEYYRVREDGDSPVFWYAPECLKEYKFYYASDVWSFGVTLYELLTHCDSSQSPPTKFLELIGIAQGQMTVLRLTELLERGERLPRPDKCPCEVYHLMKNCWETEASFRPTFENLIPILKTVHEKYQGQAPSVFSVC

COc1ccccc1[C@@H](CO)Nc1nc(Nc2cnn(CCO)c2)ncc1Cl [Compound 76]
IC50 (TYK2): 0.1 to 1 µM
IC50 (JAK1): 0.1 to 1 µM

OCCn1cc(Nc2ncc(Cl)c(N[C@H](CO)c3ccccc3F)n2)cn1 [Compound 77]
IC50 (TYK2): 0.1 to 1 µM
IC50 (JAK1): 0.1 to 1 µM

NC(=O)Cn1cc(Nc2ncc(Cl)c(N[C@H](CO)c3ccccc3F)n2)cn1 [Compound 78]
IC50 (TYK2): 0.1 to 1 µM
IC50 (JAK1): < 0.1 µM

OC[C@@H](Nc1nc(Nc2cn[nH]c2)ncc1Cl)c1ccccc1F [Compound 79]
IC50 (TYK2): 1 to 10 µM
IC50 (JAK1): 0.1 to 1 µM

OCCn1cc(Nc2ncc(Cl)c(N[C@H](CO)c3ccccn3)n2)cn1 [Compound 80]
IC50 (TYK2): 0.1 to 1 µM
IC50 (JAK1): 0.1 to 1 µM

NC(=O)Cn1cc(Nc2ncc(Cl)c(N[C@H](CO)c3ccccn3)n2)cn1 [Compound 81]
IC50 (TYK2): 0.1 to 1 µM
IC50 (JAK1): 0.1 to 1 µM

COc1cccc([C@@H](CO)Nc2nc(Nc3cnn(C)c3)ncc2Cl)c1 [Compound 82]
IC50 (TYK2): 1 to 10 µM
IC50 (JAK1): 1 to 10 µM

COc1cccc([C@@H](CO)Nc2nc(Nc3cnn(CCO)c3)ncc2Cl)c1 [Compound 83]
IC50 (TYK2): 1 to 10 µM
IC50 (JAK1): 1 to 10 µM

COc1cccc([C@@H](CO)Nc2nc(Nc3cnn(CC(N)=O)c3)ncc2Cl)c1 [Compound 84]
IC50 (TYK2): 1 to 10 µM
IC50 (JAK1): 1 to 10 µM

Cc1cnc(Nc2cnn(CC(F)F)c2)nc1N[C@H](CO)c1cc(F)cc(F)c1 [Compound 167]
IC50 (TYK2): 1 to 10 µM
IC50 (JAK1): 1 to 10 µM

Cc1cnc(Nc2cnn(CC(F)F)c2)nc1NC(CO)c1c(F)cccc1F (centres unmarked) [Compound 168]
IC50 (TYK2): 1 to 10 µM
IC50 (JAK1): 1 to 10 µM

Cc1cnc(Nc2cnn(CC(=O)N3CCOCC3)c2)nc1NC(CO)c1c(F)cccc1F (centres unmarked) [Compound 169]
IC50 (TYK2): 0.1 to 1 µM
IC50 (JAK1): 1 to 10 µM

CNC(=O)Cn1cc(Nc2ncc(Cl)c(N[C@H](CO)c3cccnc3)n2)cn1 [Compound 170]
IC50 (TYK2): 1 to 10 µM
IC50 (JAK1): 1 to 10 µM
